From US7294625B2, “Pyrazole compounds” (Ube Industries, Ltd., priority 2002, dated 2007) come the findings set out here.

pIC50: −log10 of the molar value.

The term pIC50 denotes the negative decadic logarithm of the IC50, by convention in mol/L.

The target of experiment [1] is T1, p38MAP kinase (Homo sapiens, UniProt Q16539).
T1 construct: purchased Stratagene (p38MAP kinase); Upstate (SKK/MKK6) #206145 (p38MAP kinase); #14-225 or #14-303 (SKK/MKK6)
The experiment is described as follows: Enzyme inhibitory test against p38MAP kinase. It is filed as biochemical. The conditions noted are these: active type p38MAP kinase, EGFR peptide substrate, [γ-32P]ATP, 30° C. 30 minutes; read-out: p38MAP kinase inhibition IC50 value. The protocol:
Test Example 1 Enzyme Inhibitory Test Against p38MAP Kinase
(1) Preparatoin of Active Type p38MAP Kinase
An active type p38MAP kinase was prepared by incubation in a reaction solution (25 mM Tris-HCl pH 7.5, 5 mM β-glycerolphosphate, 2 mM DTT, 0.1 mM […], 10 mM MgCl2, 1 mM ATP) containing p38MAP kinase (Stratagene, #206145) and SKK/MKK6 (Upstate, #14-225 or #14-303) at 30° C. for 1 to 3 hours. This enzyme solution was diluted 5 to 10-fold with Stock Buffer (50 mM Tris-HCl pH 7.5, 0.1 mM EGTA, 0.2 mM Orthovanadate, 0.1% 2-ME, 10% glycerol, 0.03% Brij-35, 0.5 μM Microcystin), and preserved under freezing (−80° C.).
(2) Measurement of Inhibitory Activity of p38MAP Kinase
To 34 μL of a reaction solution (25 mM HEPES, pH 7.5, 10 mM Magnesium acetate) containing the active type p38MAP kinase prepared as mentioned above and a substrate (final concentration: […] EGFR; […]) was added 1 μL of DMSO, or a compound to be tested and dissolved in DMSO, then, the mixture was subjected to preincubation at 4° C. for 30 minutes. A reaction was started by adding 5 μL of an ATP solution (400 μM ATP, 1 μCi/μL [γ-^32P]ATP), and reacted at 30° C. for 30 minutes, and then, the reaction was stopped by adding 5 μL of 250 mM H3PO4. 25 μL of the reaction solution was placed on chromatography paper (Whatman, #P81), dried for about 2 minutes, and washed with 75 mM H3PO4. Water was removed by using 95% ethanol, it was transferred to a bial containing liquid scintillation cocktail (available from Nacalai Tesque), and radioactivity was measured. A concentration (IC50 value) of a compound to be tested necessary for inhibiting 50% of phosphrylation (^32P) of the substrate by the enzyme was calculated as compared to that non-treated by the compound to be tested by XL-fit (available from IDBS).

Experiment [2] has as its system LPS-induced TNF-α production in human PBMC. The experiment is described as follows: Inhibition of TNF-α production in human PBMC (in vitro). In kind it is cell-based. The conditions noted are these: LPS 10 μg/ml, 18 hours, TNF-α ELISA, read-out: Inhibitory effect on LPS-induced TNF-α production in human PBMC IC50 value. The protocol: Test Example 2 Inhibition of TNF-α Production in Human PBMC (In Vitro)
Test was carried out according to the method of Welker et al. (Int. Arch. Allergy Immunol., 109, 110-115 (1996).
Heparin-added blood collected from healthy volunteer with consent was underlayed with a specific gravity-separating solution (Lymphoprep; available from Daiichi Pure Chemicals Co., Ltd.), subjected to centrifugation (800×g, 25 minutes), and a mononuclear cell layer was recovered. The obtained mononuclear cells (human PBMC) were washed twice with PBS (available from SIGMA), and resuspended in 1% FCS-containing RPMI aqueous solution (available from GIBCO) so that the cells became 5×10^6 cells/mL. The thus obtained cell suspension was diluted 10-fold with 1% FCS-containing RPMI medium, DMSO (or the compound to be tested) with a final concentration of 0.5% was added thereto, and cultured at 37° C. in 5% CO2 for 1 hour. After that, LPS (derived from E. Coli 055:5B, available from SIGMA) solution prepared by PBS was added so that the final concentration thereof being 10 μg/ml, and cultivation was carried out for further 18 hours. After the cultivation, culture medium was subjected to centrifugation (800×g, 10 minutes), and a concentration of TNF-α produced in the supernatant was measured by an enzyme-linked immunosorbent assay (ELISA) kit (TNF-α ELISA Kit, available from R&D). The concentration (IC50 value) of the test compound for inhibiting 50% of TNF-α production was calcualted by using XL-fit (available from IDBS).
Background: ELISA stands for enzyme-linked immunosorbent assay.

Experiment [3] concerns rat adjuvant arthritis model. As to the kind of experiment: Anti-inflammatory effect in rat adjuvant arthritis model. In kind it is in vivo. The conditions noted are these: LEW rats, 3 mg/Kg oral once a day. As for the experimental part: Test Example 4 Anti-inflammatory Effect in Rat Adjuvant Arthritis Model
Heat-killed bacteria of Mycobacterium butyricum (available from Difco) were pulverized by agate mortar, and this was suspended in dry-heat sterilized liquid paraffin (available from Wako Pure Chemical Industries, Ltd.) so as to have 10 mg/ml, and subjected to ultrasonic wave treatment to obtain an adjuvant. 500 μg/50 μl/paw of the adjuvant was administered into right hind paw of LEW series rats (female, 7-weeks old, available from Charles River Japan, Inc.) under isoflurane (Forane, available from Abbott Japan) inhalation anesthesia to induce adjuvant arthritis. Also, liquid paraffin containing no dead bacteria was also administered in the same manner as mentioned above to prepare a non-treatment group.
The test compound was suspended in a 0.5% aqueous sodium carboxymethyl cellulose solution, or dissolved in distilled water for injection, and orally administered at a dose of 10 ml/kg once a day from the injected day of the adjuvant (0th day) to 27th day.
After 7th, 14th, 21st and 28th day from administration of the adjuvant, volumes of the right hind paw to which the adjuvant had been administered and of left hind paw to which no adjuvant had been administered were measured by a plethysmometer (TK-101CMP, UNICOM). An edema ratio was calculated from the following equation. Edema ratio (%)=[(volume of hind paw at the time of measurement)/(volume of hind paw before initiation of the test)−1]×100 Moreover, edema suppressive ratio based on the control group to which the vehicle was administered was calculated from the following equation. Edema suppressive ratio (%)=[1-{(edema ratio of test compound-administered group)−(edema ratio of non-treated group)}/{(edema ratio of control group)−(edema ratio of non-treatment group)}]×100 The test results are shown in Table 8.

Experiment [4] deals with cytokine (IL-1β and TNF-α) induced IL-6 production. As to the kind of experiment: Inhibition of IL-6 production in rat (in vivo). Particulars: LEW rats, 3 mg/Kg oral, 1 hour before IL-1β/TNF-α i.v., serum IL-6 two hours later. The protocol:
Test Example 3 Inhibition of IL-6 Production in Rat (In Vivo)
A cytokine mixed solution of IL-1β and TNF-α was intravenously injected to rats to induce production of IL-6. A mixed solution of IL-1β (available from R&D) (4 μg/ml) and TNF-α (available from R&D) (2 μg/ml) dissolved in PBS was administered to tail vein of LEW series rats (female, body weight: about 140 to 170 g, available from Charles River Japan, Inc.) fasted overnight with a ratio of 1 ml/kg of the body weight. Two hours later, blood was collected from the neck vein under ether anesthesia. The collected blood was centrifuged under the conditions of 20° C. and 10,000×g to separate serum. IL-6 concentration in the serum was measured by using an enzyme-linked immunosorbent assay (ELISA) kit (IL-6 ELISA KIT, available from R&D).
The test compound or the vehicle was orally administered with a dose of 10 ml/kg of the body weight before 1 hour of the injection of the cytokine mixed solution. The control group to which the vehicle was administered and the group of the compound to be tested were each 5 rats per group. An inhibitory ratio of the group of the compound to be tested based on control group was calculated.

T1 sequence (Q16539 whole entry): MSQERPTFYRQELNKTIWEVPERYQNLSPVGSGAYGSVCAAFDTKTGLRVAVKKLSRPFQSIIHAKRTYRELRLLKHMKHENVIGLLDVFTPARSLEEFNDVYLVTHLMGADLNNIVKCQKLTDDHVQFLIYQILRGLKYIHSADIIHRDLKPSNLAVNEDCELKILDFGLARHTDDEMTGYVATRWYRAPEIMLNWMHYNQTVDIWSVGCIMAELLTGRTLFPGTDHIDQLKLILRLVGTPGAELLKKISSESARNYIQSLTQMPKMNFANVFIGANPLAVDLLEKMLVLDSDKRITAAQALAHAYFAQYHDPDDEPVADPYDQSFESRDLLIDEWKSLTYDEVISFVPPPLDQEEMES

As for `Nc1cc(-c2cn(-c3ccc(=O)[nH]n3)nc2-c2ccc(F)cc2)ccn1` [Example 2, 4-(2-Aminopyridin-4-yl)-3-(4-fluorophenyl)-1-(1,6-dihydro-6-oxopyridazin-3-yl)-1H-pyrazole], the pIC50 in experiment [1] was 8.60; in experiment [2], 7.62. Further, the “28th day left hind paw edema suppressive ratio (%) @3 mg/Kg” value in experiment [3] is on record as 83 (28th day) %.

As for `Fc1ccc(-c2nn(-c3ccc4nncn4n3)cc2-c2ccncc2)cc1` [Example 5, 3-(4-Fluorophenyl)-4-(pyridin-4-yl)-1-([1,2,4]triazolo[4,3-b]pyridazin-6-yl)-1H-pyrazole], the negative-log IC50 (pIC50) is 7.60 in experiment [1] and 8.40 in experiment [2]. Also, the “Rat cytokine induced IL-6 production inhibiting ratio (%) @3 mg/Kg” value in experiment [4] was 92%.

As for `Nc1cc(-c2cn(-c3ccc4nncn4n3)nc2-c2ccc(F)cc2)ccn1` [Example 8, 4-(2-Aminopyridin-4-yl)-3-(4-fluorophenyl)-1-([1,2,4]triazolo[4,3-b]pyridazin-6-yl)-1H-pyrazole], the pIC50 in experiment [1] was 8.13. Besides, the “28th day left hind paw edema suppressive ratio (%) @3 mg/Kg” value in experiment [3] is listed as 79 (28th day) %.

On to `CNc1cc(-c2cn(-c3ccc4nncn4n3)nc2-c2ccc(F)cc2)ccn1` [Example 13, 3-(4-Fluorophenyl)-4-(2-methylaminopyridin-4-yl)-1-([1,2,4]triazolo[4,3-b]pyridazin-6-yl)-1H-pyrazole], for which the pIC50 in experiment [1] was 7.54. For the same compound, the “left hind paw edema suppressive ratio (%) @3 mg/Kg” value in experiment [3] (21st day) is listed as 79 (21st day) %.

For `Fc1ccc(-c2nn(-c3ccc4nncn4n3)cc2-c2ccnc(NCC(F)(F)F)c2)cc1` [Example 16, 3-(4-Fluorophenyl)-1-([1,2,4]triazolo[4,3-b]pyridazin-6-yl)-4-[2-(2,2,2-trifluoroethyl)aminopyridin-4-yl]-1H-pyrazole], the pIC50 in experiment [1] is 8.70. For the same compound, the “Rat cytokine induced IL-6 production inhibiting ratio (%) @3 mg/Kg” value in experiment [4] is given as 97%.

Consider `Nc1cc(-c2cn(-c3ccc(=O)[nH]n3)nc2-c2ccccc2)ccn1` [Example 20, 4-(2-Aminopyridin-4-yl)-1-(1,6-dihydro-6-oxopyridazin-3-yl)-3-phenyl-1H-pyrazole], for which the “Rat cytokine induced IL-6 production inhibiting ratio (%) @3 mg/Kg” value in experiment [4] is given as 78%.

Consider `Nc1cc(-c2cn(-c3ccc(=O)[nH]n3)nc2-c2ccccc2F)ccn1` [Example 26, 4-(2-Aminopyridin-4-yl)-3-(2-fluorophenyl)l-1(1,6-dihydro-6-oxopyridazin-3-yl)-1H-pyrazole], for which the “Rat cytokine induced IL-6 production inhibiting ratio (%) @3 mg/Kg” value in experiment [4] was determined as 77%.

In the case of `Nc1cc(-c2cn(-c3ccc4nncn4n3)nc2-c2ccccc2F)ccn1` [Example 42, 4-(2-Aminopyridin-4-yl)-3-(2-fluorophenyl)-1-([1,2,4]triazolo[4,3-b]pyridazin-6-yl)-1H-pyrazole], the pIC50 in experiment [1] is 8.02. In addition, the “Rat cytokine induced IL-6 production inhibiting ratio (%) @3 mg/Kg” value in experiment [4] is 73%.

On to `Nc1cc(-c2cn(C3=NNC(=O)CC3)nc2-c2ccccc2)ccn1` [Example 49, 4-(2-Aminopyridin-4-yl)-1-(1,4,5,6-tetrahydro-6-oxopyridazin-3-yl)-3-phenyl-1H-pyrazole], for which the pIC50 in experiment [1] was 8.15. Also, in experiment [4], the “Rat cytokine induced IL-6 production inhibiting ratio (%) @3 mg/Kg” value was found to be 84%.

As for `O=C1CCC(n2cc(-c3ccnc(NCC(F)(F)F)c3)c(-c3ccc(F)cc3)n2)=NN1` [Example 56, 3-(4-Fluorophenyl)-1(1,4,5,6-tetrahydro-6-oxopyridazin-3-yl)-4-[2-(2,2,2-trifluoroethyl)aminopyridin-4-yl]-1H-pyrazole], in experiment [4], the “Rat cytokine induced IL-6 production inhibiting ratio (%) @3 mg/Kg” value was 85%.
